Experimental data taken from patent US8658648B2, “Modified chloroquines with single ring moiety or fused ring moiety” (DesignMedix, Inc., priority 2008, dated 2014).
Read-outs that look alike come from different tables or passages of the source.

Tests used:
[1] = system: D6 (CQ^S) P. falciparum strain; assay: In vitro fluorescence (Sybr Green I) assay for IC50 against D6 strain; type: cell-based; settings: Plasmodium falciparum, read-out: IC50-D6
Description: (§1) This method employs fluorescent detection of the level of parasitemia in cultured red blood cells and can be automated for high-throughput screening of antimalarial RCQs. This exemplary method allows the inhibitory agent (such as a MCQ) to be in contact with the parasite for an entire developmental cycle without purine starvation, which is in contrast to the traditional ^3H-hypoxanthine method (Desjardins et al. 1979. Antimicrob. Agents Chemother. 16(6):710-718, which is incorporated herein by reference in its entirety). Briefly, to perform the Smilkstein et al. method, an initial parasitemia of approximately 0.2% is attained by adding uninfected red blood cells (RBCs) to a stock culture of Plasmodium-infected RBCs. […] After a period of incubation (such as about 72 hours), a sufficient amount (e.g., 100 μL) of a fluorescent DNA binding dye-detergent mixture (e.g., Sybr Green I dye-detergent mixture) to lyse cells and bind to DNA is added to the reactions. Because uninfected RBCs have no DNA, only parasite DNA (in infected RBCs) is available for binding to the fluorescent dye (e.g., Sybr Green I). Samples are then incubated in the dark for a period of time (e.g., one hour), followed by measurement of levels of fluorescence. For Sybr Green 1, excitation and emission wavelength are 485 and 530 nm, respectively. Fluorescence readings, which represent the amount of parasite DNA in the sample, can be plotted against the Log [drug] and fit to a curve by nonlinear regression to obtain the IC50 value for the tested compound.
(§2) An in vitro fluorescence assay for determining IC50 of antimalarial drugs was performed as previously described by Smilkstein et al. (2004. Antimicrob. Agents Chemother. 48(5):1803-1806). This procedure can be automated for high-throughput screening of the antimalarial activities of RCQs described herein. This method also allows the tested agent (e.g., a MCQ) to be in contact with the parasite for an entire developmental cycle without purine starvation (which occurs with the commonly used ^3H-hypoxanthine method; see, e.g., Desjardins et al. 1979. Antimicrob. Agents Chemother. 16, (6):710-7188).
(§3) Briefly, an initial parasitemia of approximately 0.2% was attained by addition of uninfected red blood cells to a stock culture of cells infected with Dd2 (CQ^R), 7G8 (CQ^R), or D6 (CQ^S) P. falciparum strains. A 10 mM solution of a test compound (in DMSO) was prepared. The test compound (at a final concentration from 10^−11 to 10^−4 M) and infected red blood cells (at a final concentration of 2% (v/v)) were mixed in 100 μL samples in individual wells of a 96-well plate. Each sample was prepared in triplicate. A triplicate set of reactions containing CQ (instead of the test compound) was included as a control. After a 72 hour incubation period, Sybr Green I dye-detergent mixture (100 μL) was added to each reaction. The samples were further incubated for an hour in the dark, and then placed in a 96-well fluorescence plate reader (Gemini-EM, […]) and analyzed with excitation and emission wavelength bands at 485 and 530 nm, respectively. Fluorescence readings were plotted against the Log [drug], and curve fitting performed by nonlinear regression to find the IC50 value.

[2] = system: 7G8 (CQ^R) P. falciparum strain; assay: In vitro fluorescence (Sybr Green I) assay for IC50 against 7G8 strain; type: cell-based; settings: Plasmodium falciparum, read-out: IC50-7G8
Description: as §1, §2, §3

[3] = system: Dd2 (CQ^R) P. falciparum strain; assay: In vitro fluorescence (Sybr Green I) assay for IC50 against Dd2 strain; type: cell-based; settings: Plasmodium falciparum, read-out: IC50-Dd2
Description: as §1, §2, §3

[4] = system: mitogen-induced marine spleen lymphocytes; type: cell-based; settings: LC50; mouse spleen lymphocytes, 72 hours incubation, then resazurin 24 hours
Description: Mouse spleen lymphocytes were isolated from C57B1/6J mice by teasing tissues on a metallic sieve screen. […] Two hundred (200) μl isolated cells were then seeded in separate wells of a 96-well flat-bottom tissue culture plate at a density of 2×10^5 cells per well. […] After 72 hours incubation in a humidified atmosphere at 37° C. and 5% CO2, a solution of resazurin PBS was added to a final concentration 10 μM, and the plates were returned to the incubator for another 24 hours. Resazurin is a substrate which changes color in response to metabolic activity (such as that found in living cells). […] LC50 values were determined from plots of florescence versus drug concentration using non-linear regression by Prism software.

P. falciparum strain Dd2 = settings: cited from earlier work; further: key: S = sensitive; R = resistant; S/R = intermediate level of resistance
P. falciparum strain D6 = settings: cited from earlier work; further: key: S = sensitive; R = resistant; S/R = intermediate level of resistance
[5] = system: P. falciparum strain FCR3; settings: cited from earlier work; further: key: S = sensitive; R = resistant; S/R = intermediate level of resistance
[6] = system: P. falciparum strain TM91C235; settings: cited from earlier work; further: key: S = sensitive; R = resistant; S/R = intermediate level of resistance
P. falciparum strain W2 = settings: cited from earlier work; further: key: S = sensitive; R = resistant; S/R = intermediate level of resistance
[7] = Erythrocyte, D6 (CQ^S) strain in infected red blood cells, 72 hour incubation
[8] = Erythrocyte, 7G8 (CQ^R) strain in infected red blood cells, 72 hour incubation
[9] = Erythrocyte, Dd2 (CQ^R) strain in infected red blood cells, 72 hour incubation

IC50 [1, 7]	IC50 [2, 8]	IC50 [3, 9]	Compound	IC50 ([1]; D6, Erythrocyte, 72 h)	IC50 ([3]; DD2, Erythrocyte, 72 h)	further results
2.07 nM	6.8 nM	2 nM	Clc1ccc2c(NCCCN3CCN(c4ccncc4)CC3)ccnc2c1 [7-chloro-N-(3-(4-(pyridin-4-yl)piperazin-1-yl)propyl)quinolin-4-amine]			
0.26 nM	0.45 nM	0.48 nM	O=[N+]([O-])c1ccc(N2CCN(CCCNc3ccnc4cc(Cl)ccc34)CC2)nc1 [7-chloro-N-(3-(4-(5-nitropyridin-2-yl)piperazin-1-yl)propyl)quinolin-4-amine]			
			Clc1ccc2c(NCCCN3CCN(c4ccccc4)CC3)ccnc2c1 [7-chloro-N-(3-(4-phenylpiperazin-1-yl)propyl)quinolin-4-amine]	< 2.5 nM	< 2.5 nM	Cytotoxicity [4]: 6400 nM
			OC(c1cc(C(F)(F)F)nc2c(C(F)(F)F)cccc12)C1CCCCN1 (centres unmarked) [Mefloquine]			Drug susceptibility of P. falciparum strain Dd2 (P. falciparum strain Dd2): R; Drug susceptibility of P. falciparum strain D6 (P. falciparum strain D6): S/R; Drug susceptibility of P. falciparum strain FCR3 [5]: S; Drug susceptibility of P. falciparum strain TM91C235 [6]: R; Drug susceptibility of P. falciparum strain W2 (P. falciparum strain W2): S
0.14 nM	0.3 nM	0.8 nM	Fc1ccc(N2CCN(CCCNc3ccnc4cc(Cl)ccc34)CC2)cc1 [7-chloro-N-(3-(4-(4-fluorophenyl)piperazin-1-yl)propyl)quinolin-4-amine]			
			Clc1ccc2c(NCCCN3CCN(c4cccc(-c5ccccc5)c4)CC3)ccnc2c1 [N-(3-(4-(biphenyl-3-yl)piperazin-1-yl)propyl)-7-chloroquinolin-4-amine]	0.94 nM	1.8 nM	Cytotoxicity [4]: 2100 nM
			COc1ncnc(NS(=O)(=O)c2ccc(N)cc2)c1OC [Sulfadoxine]			Drug susceptibility of P. falciparum strain Dd2 (P. falciparum strain Dd2): S; Drug susceptibility of P. falciparum strain D6 (P. falciparum strain D6): S; Drug susceptibility of P. falciparum strain FCR3 [5]: S; Drug susceptibility of P. falciparum strain TM91C235 [6]: R; Drug susceptibility of P. falciparum strain W2 (P. falciparum strain W2): R
			Clc1ccc2c(NCCCN3CCN(c4ccc(-c5ccccc5)cc4)CC3)ccnc2c1 [N-(3-(4-(biphenyl-4-yl)piperazin-1-yl)propyl)-7-chloroquinolin-4-amine]	0.1 nM	0.36 nM	Cytotoxicity [4]: 2200 nM; IC50 ([2]; 7G8, Erythrocyte, 72 h): 0.13 nM
4.57 nM	12.2 nM	3.9 nM	Clc1ccc2c(NCCN3CCN(c4ccccn4)CC3)ccnc2c1 [7-chloro-N-(2-(4-(pyridin-2-yl)piperazin-1-yl)ethyl)quinolin-4-amine]			
0.1 nM	0.3 nM	0.48 nM	COc1ccc(N2CCN(CCCNc3ccnc4cc(Cl)ccc34)CC2)cc1 [7-chloro-N-(3-(4-(4-methoxyphenyl)piperazin-1-yl)propyl)quinolin-4-amine]			
			O=[N+]([O-])c1ccc(N2CCN(CCCNc3ccnc4cc(Cl)ccc34)CC2)cc1 [7-chloro-N-(3-(4-(4-nitrophenyl)piperazin-1-yl)propyl)quinolin-4-amine]	0.8 nM	1.14 nM	IC50 ([2]; 7G8, Erythrocyte, 72 h): 0.4 nM
2.07 nM	2.9 nM	1.1 nM	Clc1ccc2c(NCCCN3CCN(c4cccnc4)CC3)ccnc2c1 [7-chloro-N-(3-(4-(pyridin-3-yl)piperazin-1-yl)propyl)quinolin-4-amine]			
			Nc1ccc(N2CCN(CCCNc3ccnc4cc(Cl)ccc34)CC2)cc1 [N-(3-(4-(4-aminophenyl)piperazin-1-yl)propyl)-7-chloroquinolin-4-amine]	1.8 nM	3.16 nM	IC50 ([2]; 7G8, Erythrocyte, 72 h): 3.2 nM
0.11 nM	0.3 nM	0.86 nM	Cc1ccc(N2CCN(CCCNc3ccnc4cc(Cl)ccc34)CC2)cc1 [7-chloro-N-(3-(4-p-tolylpiperazin-1-yl)propyl)quinolin-4-amine]			
0.005 nM	0.2 nM	0.17 nM	FC(F)(F)c1ccc(N2CCN(CCCNc3ccnc4cc(Cl)ccc34)CC2)cc1 [7-chloro-N-(3-(4-(4-(trifluoromethyl)phenyl)piperazin-1-yl)propyl)quinolin-4-amine]			
1.3 nM	3.3 nM	1 nM	Clc1ccc2c(NCCCN3CCN(c4ncccn4)CC3)ccnc2c1 [7-chloro-N-(3-(4-(pyrimidin-2-yl)piperazin-1-yl)propyl)quinolin-4-amine]			
			C=C[C@H]1C[N@@]2CC[C@H]1C[C@H]2[C@H](O)c1ccnc2ccc(OC)cc12 [Quinine]			Drug susceptibility of P. falciparum strain Dd2 (P. falciparum strain Dd2): R; Drug susceptibility of P. falciparum strain D6 (P. falciparum strain D6): S; Drug susceptibility of P. falciparum strain FCR3 [5]: S; Drug susceptibility of P. falciparum strain TM91C235 [6]: R; Drug susceptibility of P. falciparum strain W2 (P. falciparum strain W2): R
			O=[N+]([O-])c1ccc(N2CCN(CCCNc3ccnc4cc(Cl)ccc34)CC2)c([N+](=O)[O-])c1 [7-chloro-N-(3-(4-(2,4-dinitrophenyl)piperazin-1-yl)propyl)quinolin-4-amine]	0.3 nM	0.47 nM	IC50 ([2]; 7G8, Erythrocyte, 72 h): 0.35 nM
			Clc1ccc2c(NCCCN3CCN(c4ccc(Cl)c(Cl)c4)CC3)ccnc2c1 [7-chloro-N-(3-(4-(3,4-dichlorophenyl)piperazin-1-yl)propyl)quinolin-4-amine]	0.1 nM	0.9 nM	IC50 ([2]; 7G8, Erythrocyte, 72 h): 0.28 nM
			Clc1ccc2c(NCCCN3CCN(c4ccccc4-c4ccccc4)CC3)ccnc2c1 [N-(3-(4-(biphenyl-2-yl)piperazin-1-yl)propyl)-7-chloroquinolin-4-amine]	1.2 nM	2.6 nM	Cytotoxicity [4]: 1700 nM
			Clc1ccc(N2CCN(CCCNc3ccnc4cc(Cl)ccc34)CC2)cc1 [7-chloro-N-(3-(4-(4-chlorophenyl)piperazin-1-yl)propyl)quinolin-4-amine]	0.005 nM	0.33 nM	IC50 ([2]; 7G8, Erythrocyte, 72 h): 0.09 nM
			CC1(C)N=C(N)N=C(N)N1c1ccc(Cl)cc1 [Cycloguanil]			Drug susceptibility of P. falciparum strain Dd2 (P. falciparum strain Dd2): S; Drug susceptibility of P. falciparum strain D6 (P. falciparum strain D6): S; Drug susceptibility of P. falciparum strain FCR3 [5]: S; Drug susceptibility of P. falciparum strain W2 (P. falciparum strain W2): R
0.5 nM	1 nM	0.83 nM	FC(F)(F)c1ccc(N2CCN(CCCNc3ccnc4cc(Cl)ccc34)CC2)nc1 [7-chloro-N-(3-(4-(5-(trifluoromethyl)pyridin-2-yl)piperazin-1-yl)propyl)quinolin-4-amine]			

Compound	IC50 [1, 7]	IC50 [2, 8]	IC50 [3, 9]	IC50 ([1]; D6, Erythrocyte, 72 h)	IC50 ([3]; DD2, Erythrocyte, 72 h)	further results
O=[N+]([O-])c1cnc(N2CCN(CCCNc3ccnc4cc(Cl)ccc34)CC2)c([N+](=O)[O-])c1 [7-chloro-N-(3-(4-(3,5-dinitropyridin-2-yl)piperazin-1-yl)propyl)quinolin-4-amine]	0.45 nM	0.9 nM	0.85 nM			
